Results from ChEMBL document CHEMBL1143804, “Synthesis and antibacterial evaluation of 1beta-methyl-2-[5-(1-methoxyimino-2-substituted sulfonamide ethyl)pyrrolidin-3-ylthio]carbapenems and their related compounds” (2007).
Converted amounts (≈) assume the structure as drawn.

Assays:
Pseudomonas aeruginosa [1] = experiment: Antibacterial activity against Pseudomonas aeruginosa 77/2; type: functional
Salmonella = experiment: Antibacterial activity against Salmonella orion; type: functional
Serratia marcescens [2] = experiment: Antibacterial activity against Serratia marcescens 370; type: functional
Streptococcus pyogenes [3] = experiment: Antibacterial activity against Streptococcus pyogenes 308A; type: functional
Enterococcus faecium = experiment: Antibacterial activity against Streptococcus faecium 77A; type: functional
[4] = Antibacterial activity against Salmonella oranienberg; type: functional, Salmonella enterica subsp. enterica serovar Oranienburg; conditions: Salmonella enterica
Staphylococcus aureus [5] = experiment: Antibacterial activity against Staphylococcus aureus 285; type: functional
Providencia rettgeri [6] = experiment: Antibacterial activity against Proteus rettgeri 937; type: functional
Pseudomonas aeruginosa [7] = experiment: Antibacterial activity against Pseudomonas aeruginosa 110/2; type: functional
Staphylococcus aureus [8] = experiment: Antibacterial activity against Staphylococcus aureus 209P; type: functional
Enterobacter cloacae [9] = experiment: Antibacterial activity against Enterobactor cloacae 1321E; type: functional
Enterococcus durans = experiment: Antibacterial activity against Streptococcus durans D; type: functional
Salmonella typhimurium = experiment: Antibacterial activity against Salmonella Typhimurium; type: functional, Salmonella enterica subsp. enterica serovar Typhimurium; conditions: Salmonella enterica
Priestia megaterium = experiment: Antibacterial activity against Bacillus megaterium; type: functional
Enterobacter cloacae [10] = experiment: Antibacterial activity against Enterobacter cloacae 417; type: functional
[11] = Antibacterial activity against Salmonella give; type: functional, Salmonella enterica subsp. enterica serovar Give; conditions: Salmonella enterica
Escherichia coli [12] = experiment: Antibacterial activity against Escherichia coli 0114; type: functional
[13] = system: Corynebacterium diphtheriae; experiment: Antibacterial activity against Corynebacterium diphtheriae; type: functional
Pseudomonas aeruginosa [14] = experiment: Antibacterial activity against Pseudomonas aeruginosa 9027; type: functional
Escherichia coli [15] = experiment: Antibacterial activity against Escherichia coil 1507; type: functional
Pasteurella multocida = experiment: Antibacterial activity against Pasteurella multocida; type: functional
Salmonella typhi = experiment: Antibacterial activity against Salmonella typhi; type: functional, Salmonella enterica subsp. enterica serovar Typhi; conditions: Salmonella enterica
Escherichia coli [16] = experiment: Antibacterial activity against Escherichia coli TEM; type: functional
Streptococcus pyogenes [17] = experiment: Antibacterial activity against Streptococcus pyogenes 77A; type: functional
Serratia marcescens [18] = experiment: Antibacterial activity against Serratia marcescens 6093; type: functional
Providencia rettgeri [19] = experiment: Antibacterial activity against Proteus rettgeri 936; type: functional
Burkholderia cepacia = experiment: Antibacterial activity against Pseudomonas cepacia; type: functional
Klebsiella aerogenes = experiment: Antibacterial activity against Klebsiella aerogenes 1522E; type: functional
Bacillus subtilis = experiment: Antibacterial activity against Bacillus subtilts ATCC 6633; type: functional
Trueperella pyogenes = experiment: Antibacterial activity against Corynebacterium pyogenes; type: functional
Escherichia coli [20] = experiment: Antibacterial activity against Escherichia coli 086; type: functional
Klebsiella pneumoniae = experiment: Antibacterial activity against Klebsiella pneumonise 477; type: functional
Staphylococcus aureus [21] = experiment: Antibacterial activity against Staphylococcus aureus giorgio; type: functional
Staphylococcus aureus [22] = experiment: Antibacterial activity against Staphylococcus aureus SG511; type: functional
Proteus mirabilis [23] = experiment: Antibacterial activity against Proteus mirabilis 174/3; type: functional
Enterobacter cloacae [24] = experiment: Antibacterial activity against Enterobacter cloacae; type: functional
Escherichia coli [25] = experiment: Antibacterial activity against Escherichia coli DC2; type: functional
Proteus mirabilis [26] = experiment: Antibacterial activity against Proteus mirabilis 112/3; type: functional
Micrococcus luteus = experiment: Antibacterial activity against Micrococcus luteus ATCC 9341; type: functional
Escherichia coli [27] = experiment: Antibacterial activity against Escherichia coil V6311/65; type: functional
Streptococcus agalactiae = experiment: Antibacterial activity against Streptococcus agalactiae B; type: functional
Staphylococcus aureus [28] = experiment: Antibacterial activity against Staphylococcus aureus 503; type: functional
Proteus vulgaris = experiment: Antibacterial activity against Proteus vulgaris 868; type: functional
Pseudomonas aeruginosa [29] = experiment: Antibacterial activity against Pseudomonas aeruginosa 880/2; type: functional
Serratia marcescens [30] = experiment: Antibacterial activity against Serratia marcescens 14273; type: functional
Escherichia coli [31] = experiment: Antibacterial activity against Escherichia coli 0126; type: functional

## C[C@@H](O)[C@H]1C(=O)N2C(C(=O)O)=C(S[C@@H]3CN[C@H](C(=O)N(C)C)C3)[C@H](C)[C@H]12 [MEROPENEM]
Pseudomonas aeruginosa [1]
  MIC: 0.8 µg/mL (≈ 2.09 µM)
Salmonella
  MIC: 0.1 µg/mL (≈ 0.261 µM)
Serratia marcescens [2]
  MIC: 0.05 µg/mL (≈ 0.13 µM)
Streptococcus pyogenes [3]
  MIC: 0.013 µg/mL (≈ 0.0339 µM)
Enterococcus faecium
  MIC: 0.01 µg/mL (≈ 0.0261 µM)
[4]
  MIC: 0.05 µg/mL (≈ 0.13 µM)
Staphylococcus aureus [5]
  MIC: 0.098 µg/mL (≈ 0.256 µM)
Providencia rettgeri [6]
  MIC: 0.05 µg/mL (≈ 0.13 µM)
Pseudomonas aeruginosa [7]
  MIC: 0.4 µg/mL (≈ 1.04 µM)
Staphylococcus aureus [8]
  MIC: 0.1 µg/mL (≈ 0.261 µM)
Enterobacter cloacae [9]
  MIC: 0.025 µg/mL (≈ 0.0652 µM)
Enterococcus durans
  MIC: 0.8 µg/mL (≈ 2.09 µM)
Salmonella typhimurium
  MIC: 0.025 µg/mL (≈ 0.0652 µM)
Priestia megaterium
  MIC: 0.05 µg/mL (≈ 0.13 µM)
Enterobacter cloacae [10]
  MIC: 0.01 µg/mL (≈ 0.0261 µM)
[11]
  MIC: 0.03 µg/mL (≈ 0.0782 µM)
Escherichia coli [12]
  MIC: 0.03 µg/mL (≈ 0.0782 µM)
[13]
  MIC: 0.05 µg/mL (≈ 0.13 µM)
Pseudomonas aeruginosa [14]
  MIC: 0.195 µg/mL (≈ 0.509 µM)
Escherichia coli [15]
  MIC: 0.03 µg/mL (≈ 0.0782 µM)
Pasteurella multocida
  MIC: 0.05 µg/mL (≈ 0.13 µM)
Salmonella typhi
  MIC: 0.01 µg/mL (≈ 0.0261 µM)
Escherichia coli [16]
  MIC: 0.025 µg/mL (≈ 0.0652 µM)
Streptococcus pyogenes [17]
  MIC: < 0.01 µg/mL
Serratia marcescens [18]
  MIC: 0.05 µg/mL (≈ 0.13 µM)
Providencia rettgeri [19]
  MIC: 0.1 µg/mL (≈ 0.261 µM)
Burkholderia cepacia
  MIC: 0.4 µg/mL (≈ 1.04 µM)
Klebsiella aerogenes
  MIC: 0.049 µg/mL (≈ 0.128 µM)
Bacillus subtilis
  MIC: 0.05 µg/mL (≈ 0.13 µM)
Trueperella pyogenes
  MIC: 0.03 µg/mL (≈ 0.0782 µM)
Escherichia coli [20]
  MIC: 0.05 µg/mL (≈ 0.13 µM)
Klebsiella pneumoniae
  MIC: 0.05 µg/mL (≈ 0.13 µM)
Staphylococcus aureus [21]
  MIC: 0.1 µg/mL (≈ 0.261 µM)
Staphylococcus aureus [22]
  MIC: 0.098 µg/mL (≈ 0.256 µM)
Proteus mirabilis [23]
  MIC: 0.1 µg/mL (≈ 0.261 µM)
Enterobacter cloacae [24]
  MIC: 0.03 µg/mL (≈ 0.0782 µM)
Escherichia coli [25]
  MIC: 0.025 µg/mL (≈ 0.0652 µM)
Proteus mirabilis [26]
  MIC: 0.1 µg/mL (≈ 0.261 µM)
Micrococcus luteus
  MIC: 0.05 µg/mL (≈ 0.13 µM)
Escherichia coli [27]
  MIC: 0.01 µg/mL (≈ 0.0261 µM)
Streptococcus agalactiae
  MIC: 0.05 µg/mL (≈ 0.13 µM)
Staphylococcus aureus [28]
  MIC: 0.05 µg/mL (≈ 0.13 µM)
Proteus vulgaris
  MIC: 0.1 µg/mL (≈ 0.261 µM)
Pseudomonas aeruginosa [29]
  MIC: 0.2 µg/mL (≈ 0.522 µM)
Serratia marcescens [30]
  MIC: 0.2 µg/mL (≈ 0.522 µM)
Escherichia coli [31]
  MIC: 0.05 µg/mL (≈ 0.13 µM)

## CO/N=C(\CN)[C@@H]1C[C@H](SC2=C(C(=O)O)N3C(=O)[C@H]([C@@H](C)O)[C@H]3[C@H]2C)CN1
Streptococcus pyogenes [3]
  MIC: < 0.01 µg/mL
Staphylococcus aureus [5]
  MIC: 0.195 µg/mL (≈ 0.489 µM)
Enterobacter cloacae [9]
  MIC: 0.098 µg/mL (≈ 0.246 µM)
Salmonella typhimurium
  MIC: 0.098 µg/mL (≈ 0.246 µM)
Pseudomonas aeruginosa [14]
  MIC: 3.12 µg/mL (≈ 7.83 µM)
Escherichia coli [16]
  MIC: 0.195 µg/mL (≈ 0.489 µM)
Streptococcus pyogenes [17]
  MIC: < 0.01 µg/mL
Klebsiella aerogenes
  MIC: 0.195 µg/mL (≈ 0.489 µM)
Staphylococcus aureus [22]
  MIC: 0.098 µg/mL (≈ 0.246 µM)
Escherichia coli [25]
  MIC: 0.049 µg/mL (≈ 0.123 µM)

## CCNS(=O)(=O)NC/C(=N\OC)[C@@H]1C[C@H](SC2=C(C(=O)O)N3C(=O)[C@H]([C@@H](C)O)[C@H]3[C@H]2C)CN1
Streptococcus pyogenes [3]
  MIC: < 0.01 µg/mL
Staphylococcus aureus [5]
  MIC: 0.098 µg/mL (≈ 0.194 µM)
Enterobacter cloacae [9]
  MIC: 0.025 µg/mL (≈ 0.0494 µM)
Salmonella typhimurium
  MIC: 0.025 µg/mL (≈ 0.0494 µM)
Pseudomonas aeruginosa [14]
  MIC: 3.12 µg/mL (≈ 6.17 µM)
Escherichia coli [16]
  MIC: 0.049 µg/mL (≈ 0.0969 µM)
Streptococcus pyogenes [17]
  MIC: < 0.01 µg/mL
Klebsiella aerogenes
  MIC: 0.049 µg/mL (≈ 0.0969 µM)
Staphylococcus aureus [22]
  MIC: 0.049 µg/mL (≈ 0.0969 µM)
Escherichia coli [25]
  MIC: 0.013 µg/mL (≈ 0.0257 µM)
